Article PMC3629565, “Sphingolipid synthesis and scavenging in the intracellular apicomplexan parasite, Toxoplasma gondii” (Molecular and Biochemical Parasitology, 2013)

Molecular target: T1, TgSLS (Toxoplasma gondii, UniProt A0A2U9EWT7)
T1 construct: parasites elsewhere RH, locus tag of ME49), pRS426MET25 in S. cerevisiae YPH499-HIS-GAL-AUR1, CHAPS-washed microsomes; no tag mentioned
T1 sequence (A0A2U9EWT7 1-427): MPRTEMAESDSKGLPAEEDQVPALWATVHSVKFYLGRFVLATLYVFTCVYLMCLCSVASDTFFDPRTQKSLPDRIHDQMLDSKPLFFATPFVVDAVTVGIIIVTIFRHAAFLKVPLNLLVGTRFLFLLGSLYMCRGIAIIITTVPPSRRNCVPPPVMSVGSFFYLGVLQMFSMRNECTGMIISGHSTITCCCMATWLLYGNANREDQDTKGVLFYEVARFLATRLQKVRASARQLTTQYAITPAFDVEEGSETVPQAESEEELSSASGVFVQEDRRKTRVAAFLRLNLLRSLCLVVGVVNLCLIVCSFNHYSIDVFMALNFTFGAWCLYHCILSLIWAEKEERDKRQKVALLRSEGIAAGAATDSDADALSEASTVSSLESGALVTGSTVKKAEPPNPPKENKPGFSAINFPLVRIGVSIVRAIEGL
Assay: IPC formation by CHAPS-washed yeast microsomes, HPTLC fluorescence
Format: biochemical
Details: acceptor substrate at 5 μM; donor 1 mM bovine liver phosphatidylinositol; 10 mM EDTA, 6 mg/ml BSA, 30 °C, 60 min; labelled compound

CCCCCCCCCCCCC/C=C/[C@@H](O)[C@H](CO)NC(=O)CCCCCNc1ccc([N+](=O)[O-])c2nonc12 [NBD C6-ceramide]
IPC formation by CHAPS-washed yeast microsomes, HPTLC fluorescence: reaction of CHAPS-washed TgSLS extract with acceptor substrate NBD-C6-ceramide
